# From patent US5942494A, “Stimulation of gene expression and synthesis of heat shock protein 72/73 (HSP 70)” (The Trustees of Columbia University in the City of New York, priority 1996, dated 1999)
# Square brackets hold non-standard residues; d marks the D form. Peptide text beside a SMILES is read from it. Nle = CCCC[C@H](N)C(=O)O
# System: Hsp70
# Experiment: Pulse-chase turnover of radiolabeled Hsp70 in HepG2 cells
# Format: cell-based, human
# Method: FIGS. 4A-4B: Effects of ALLN on Hsp70 turnover and synthesis rates in HepG2 cells. Confluent culture dishes were preincubated for 4 hours with serum-free MEM containing either 1.5% BSA alone (Control) or BSA plus 40 μg/ml of ALLN (ALLN). (A) The preincubated cells were radiolabeled with 3H-leucine (150 μCi/ml) in serum-free, leucine-free medium with/without ALLN for 20 min., washed 3 times with medium free of isotope and then chased in serum-free medium containing BSA with/without ALLN for up to 20 hours. At the indicated time points, cells were harvested and lysed. Samples were immediately stored in a -80° C. freezer. Immunoprecipitation of Hsp70 was performed as described in FIG. 1. Data at each time point were presented as means of cpm from duplicate dishes. (B) . […]
# FIGS. 8A-8C: Effects of ALLN on Hsp70 synthesis and turnover rates in HepG2 cells. […] Immunoprecipitates were analyzed on SDS-PAGE and fluorography (A) and also aliquoted for scintillation counting (B). […]
# HepG2 cells were preincubated for 4 hours in serum-free MEM and then radiolabeled with ^3 H-Leucine (150 μCi/ml) in a serum-free, leucine-free medium. […] Cell lysates containing equal amounts of trichloroacetic acid (TCA)-insoluble radioactivity were used for immunoprecipitations by incubating with individual monoclonal antibody (1 μg/ml) for 2.5 hours at 4° C. […]
structure (smiles),measurement,setting,value
"CCCC[C@@H](C=O)NC(=O)[C@H](CC(C)C)NC(=O)[C@H](CC(C)C)NC(C)=O [ALLN, N-acetyl-leucyl-leucyl-norleucinal] (Ac-Leu-Leu-[Nle]-aldehyde)",Half life of newly synthesized Hsp70 in the presence of ALLN,"ALLN 40 μg/ml, pulse-chase, HepG2",about 6 hours
same,Increase in the half-life of Hsp70,ALLN versus no ALLN,3-4 fold
